Legend:
2D12.5 = experiment: Relative binding curves of 2D12.5 for Y-DOTA isomers, Y-DTPA and sidechain variants (FIG. 16, 17); design: species or system mouse; details: for relative binding affinity for 2D12.5 (in words): coordinated metal Y^3+
From the text: FIG. 16 is a graphical display showing the relative binding curves of 2D12.5 for Y-DOTA isomers and Y-DTPA. 2D12.5 binds both the (R)- and (S)-isomer of 2-(4-nitrobenzyl)-DOTA when the coordinated metal is Y^3+ (the same behavior is expected for the other rare earths). The (S)-isomer confers Λ-helicity, while the (R)-isomer confers Δ-helicity to the acetate arms. […] Y-DOTA (no-sidearm) exists in solution as a racemic mixture of the coordination isomers.
FIG. 17 is a graphical display showing relative binding curves of Y-DOTA molecules with different sidechain locations. […] Evaluation of the crystal structure seems to indicate that shorter substitutions at the position may bind with higher affinity. Substitutions at other locations may yield reasonably high affinities as well. The (5-Amino-2-methoxy-phenyl)-carboxymethyl)-DOTA analyzed in this experiment was racemic, so it is not clear which isomer binds with higher affinity. The low pKa of the carboxymethyl proton makes it difficult to prepare a chirally pure molecule.

antibody 2D12.5 = experiment: Competitive immunoassay (ELISA) of metal-DOTA complexes relative to Y-DOTA; format: binding, mouse; details: 37° C.; for relative binding affinity compared with Y-DOTA (in words): 15 ions tested
From the text: FIG. 13 is graphical display showing the relative binding of metal-DOTA complexes to antibody 2D12.5. A representative set of competitive binding curves obtained from ELISA experiments described in Example 3 below. Error bars (representing the standard error of the mean) are shown, but are generally smaller than the data points.
To determine the metal selectivity of the antibody 2D12.5, a competitive immunoassay was used to measure the binding constants of multiple metal-DOTA complexes relative to Y^3+-DOTA.
We examined the monoclonal antibody 2D12.5, initially developed to bind specifically to Y-DOTA for targeted radiotherapy (see, e.g., Goodwin et al., Cancer Res. 54: 5937-5946 (1994)), in order to determine the scope of its activity. To assess the metal selectivity of antibody 2D12.5, a competitive immunoassay to measure the binding constants of various metal-DOTA complexes relative to the original Y^3+ complex was developed (FIG. 12). Briefly, 2D12.5 was incubated at 37° C. in the presence of immobilized Y-DOTA and a soluble metal-DOTA competitor. The metal-DOTA concentration was varied from μM to pM in order to determine the relative binding affinity of 2D12.5 for each metal chelate in comparison to Y-DOTA. Binding was measured by standard methods known to those of skill in the art. The DOTA analog used to evaluate binding was [S]-2-(p-nitrobenzyl)-DOTA, which is similar to the original antigen.

N85D_G54C 2D12.5 mutant = experiment: Permanent binding of metal-AABD and metal-NBD complexes to 2D12.5 Fab mutant N85D_G54C (Western blot)
Protocol: Metallation of Chelates with stable metal cations. Metals tested in this experiment included Y, La, Lu, Sr and Sc. Stock chelate concentrations were measured using a Co-57 metal binding assay (Meares et al., Anal. Biochem. 142:68-78, 1984). Stock metal solutions (approximately 0.2 M) were prepared by dissolving the appropriate gravimetrically measured rare earth chloride salt in 0.05 M HCl. As an example, YCl3 (2.5 equivalents) was added to 25 μL of NBD ([…]) dissolved in 0.1 M tetramethylammonium acetate, and the pH was adjusted to 5 by the addition of triethylamine. The metallation was allowed to proceed overnight at 50° C. Samples were promptly frozen at −70° C., and metallation efficiency was assessed using a competitive metal-binding assay with Co-57.^3 Excess metal was scavenged with DTPA, which has very low affinity for the antibody (<<1%).
Metal-AABD and metal-NBD complexes were incubated with 2D12.5 Fab mutant N85D_G54C and samples denatured, reduced and separated by SDS-PAGE, as described for Y-90 in the previous examples. […]

Compound: O=C([O-])CN1CCN(CC(=O)[O-])CCN(CC(=O)[O-])CCN(CC(=O)[O-])CC1.[Y+3] [Y-DOTA]
- relative binding affinity for 2D12.5 (in words) (2D12.5): between that observed for the (S)- and (R)-isomers
- Kd (antibody 2D12.5; DOTA analog used was [S]-2-(p-nitrobenzyl)-DOTA): 10 nM

Compound: O=C([O-])CN1CCN(CC(=O)[O-])CCN(CC(=O)[O-])CCN(CC(=O)[O-])CC1.[Tb+3] [Tb-DOTA]
- relative binding affinity compared with Y-DOTA (in words) (antibody 2D12.5): strongest binders

Compound: O=C(O)CN1CCN(CC(=O)O)CCN(CC(=O)O)[C@H](Cc2ccc([N+](=O)[O-])cc2)CN(CC(=O)O)CC1 [(R)-isomer of 2-(4-nitrobenzyl)-DOTA, 2-(4-nitrobenzyl)-DOTA]
- relative binding affinity for 2D12.5 (in words) (2D12.5): decreases less than an order of magnitude

Compound: O=C([O-])CN1CCN(CC(=O)[O-])CCN(CC(=O)[O-])CCN(CC(=O)[O-])CC1.[Gd+3] [Gd-DOTA]
- relative binding affinity compared with Y-DOTA (in words) (antibody 2D12.5): bind more tightly than the original Y^3+ complex
- relative binding affinity compared with Y-DOTA (in words) (antibody 2D12.5; listed as Gd^3+): strongest binders

Compound: O=C(O)CN(CCN(CC(=O)O)CC(=O)O)CCN(CC(=O)O)CC(=O)O [DTPA]
- affinity for the antibody (2D12.5; DTPA used to scavenge excess metal): < 1%

Compound: O=C(O)CN1CCN(CC(=O)O)CCN(CC(=O)O)C(Cc2ccc([N+](=O)[O-])cc2)CN(CC(=O)O)CC1 (stereo not shown) [NBD, [S]-2-(p-nitrobenzyl)-DOTA]
- permanent bond formation with N85D_G54C 2D12.5 mutant (N85D_G54C 2D12.5 mutant; Western blot, hybridoma-derived 2D12.5 as 1° stain): negative

Compound: (5-Amino-2-methoxyphenyl)-carboxymethyl)-DOTA
- relative binding affinity for 2D12.5 (in words) (2D12.5): still sufficiently strong

Compound: O=C([O-])CN1CCN(CC(=O)[O-])CCN(CC(=O)[O-])CCN(CC(=O)[O-])CC1.[Eu+3] [Eu^3+]
- relative binding affinity compared with Y-DOTA (in words) (antibody 2D12.5): strongest binders

Compound: O=C(O)CN1CCN(CC(=O)O)CCN(CC(=O)O)[C@@H](Cc2ccc([N+](=O)[O-])cc2)CN(CC(=O)O)CC1 [Y-NBD, (S)-2-(4-nitrobenzyl)-DOTA]
- relative binding affinity for 2D12.5 (in words) (2D12.5): clearly stronger
- relative binding affinity for 2D12.5 (in words) (2D12.5; listed as (S)-isomer of 2-(4-nitrobenzyl)-DOTA): preferred isomer for binding
- binding strength of NBD complexes among the rare earths (N85D_G54C 2D12.5 mutant; Western blots): one of the strongest binders
